Assay results reported in US10752900B2, “Oligonucleotides for modulating gene expression and uses thereof” (BIOGENERA S.P.A., priority 2012, dated 2020).

Tests used:
[1] = tested on: Phoenix; test: Cellular proliferation, Phoenix fibroblastoid-type cells; type: cell-based; details: Table 1; cells that do not express MYCN
Description: (§1) Cell viability was assessed by means of an ATP-Lite assay (Luminescence ATP Detection Assay System, PerkinElmer) and is reported as the ratio between the average signal of the treated wells compared to the average value of the wells of untreated control cells. The cells were processed following the instructions provided with the kit.
(§2) Moreover, the oligonucleotides having SEQ ID NO 1-23 were administered in lines of fibroblastoid-type cells (NIH-3T3 and Phoenix) and the results are shown in Table 1 (last two columns). […]

[2] = tested on: NIH-3T3; test: Cellular proliferation, NIH-3T3 fibroblastoid-type cells; type: cell-based; details: Table 1; cells that do not express MYCN
Description: as §1, §2

[3] = tested on: rabdomyosarcoma cells (RH30); test: Cellular proliferation assay (ATP-Lite), RH30 cells; type: cell-based, human; details: Table 6, PNA
Description: For the purpose of assessing the gene modulation ability of the oligonucleotides of the present invention, the effect of their administration on cell viability was determined. For this purpose 5×10^3 cells per well were seeded into 96-well cell culture plates (experiments conducted in triplicate) with 100 μl of OPTI-MEM (GIBCO BRL) medium containing 4% FBS and 2 mM of L-glutammine. The PNA oligonucleotides were administered at different concentrations (1 μM-2.5 μM-5 μM-10 μM) in order to observe a dose-effect relationship. As regards all the other oligonucleotides, the concentrations at which they administered are listed in the paragraph: The viability of the treated cells was determined at 48, 72, 96 and 168 hours after treatment. Cell viability was assessed by means of an ATP-Lite assay (Luminescence ATP Detection Assay System, PerkinElmer) and is reported as the ratio between the average signal of the treated wells compared to the average value of the wells of untreated control cells. The cells were processed following the instructions provided with the kit. The assays were performed on the same cell lines used to determine the levels of the MYCN gene messenger and listed in the paragraph: Treatments with Oligonucleotides-QT-PCR. The PNAs having SEQ ID NO: 1-12 were also tested on different cell lines which overexpress MYCN (Kelly, SKNBE2c, RH30, […] 1 and H69). The results are shown in Table 6 and confirm the selectivity and specificity of the inhibition effect of the PNAs on the product of protein translation of the MYCN gene. Chimeric oligonucleotides comprising DNA monomers and LNA monomers and having the MYCN gene as their target were tested in vitro on alveolar rabdomyosarcoma cells (RH30). […] The antisense oligonucleotides designed and synthesized by the Applicant according to the parameters described in the present invention were analyzed in vitro on rabdomyosarcoma cells (RH30).

[4] = tested on: MYCN gene; test: QT-PCR, MYCN mRNA in WiT49 cells; type: cell-based, human; details: Table 6
Description: For the purpose of assessing the ability of the oligonucleotides of the present invention to modulate the expression of the target genes, their ability to reduce the quantity of messenger RNA was analyzed using the Real-Time PCR technique. For this purpose, use was made of 24-well plates, which were seeded with 5.0×10^4 cells with 0.3 ml of OPTI-MEM (GIBCO BRL) medium, 4% FBS and 2 mM L-glutammine (experiments in triplicate) per well. The cells were incubated for 24 hours at 37° C., in an atmosphere containing 5% CO2 to permit adherence to the base of the wells. For each well, the oligonucleotides were analyzed at the following final concentrations: • the antisense oligonucleotides siRNA and siRNA gapmer (i.e. the oligonucleotides containing one or more monomers of chemically modified nucleic acids at the 3' or 5' end, while in the central portion they have monomers of nucleic acids that have not been modified or have been modified at the level of the phosphodiester bond as a phosphorothioate bond) were used at 200 nM; • the antisense oligonucleotides containing phosphorothioate DNA monomers, the RNA antigene oligonucleotides (agRNA) and the oligonucleotides containing DNA monomers and LNA monomers were used at 10 μM; • the morpholino oligonucleotides were used at a concentration of 1 μM, and • the PNA oligonucleotides were administered at a concentration of 1 μM. The cells were treated with the oligonucleotides, adding FBS up to 4% 6 hours after administration of the same. After 24 hours the total RNA was extracted from each well and purified using the RNeasy Mini Kit (QIAGEN). Assays were performed on 8 cell lines obtained from 5 different human tumours which are correlated with MYCN expression, i.e.: • as a neuroblastoma model use was made of the cell lines Kelly, IMR-32 (where the MYCN gene is amplified and superexpressed) and SKNBE2c and LAN1 (where the MYCN gene is amplified and superexpressed and the p53 gene is mutated); • as a rabdomiosarcoma model use was made of the cell line RH30, where the MYCN gene is amplified and superexpressed; • as a Wilms' tumour model use was made of the cell line WiT49, where the MYCN gene is amplified and superexpressed; • as a retinoblastoma model use was made of the cell line Y79, where the MYCN gene is amplified and superexpressed; and • as a model of small cell lung cancer use was made of the cell line H69 where the MYCN gene is amplified and superexpressed. As a control, use was made of the same cell lines as listed above treated with sterile water instead of oligonucleotides. Each RNA sample was quantified (in duplicate) using a NanoDrop ND-1000 spectrophotometer (NanoDrop Technologies). The first strand of cDNA was produced using the cDNA Synthesis Kit for RT-PCR (Roche). For the cDNA synthesis reaction a total of 1 μg of RNA was used. For the real-time PCR, 10 ng of cDNA in a final volume of 20 μl was used with SYBR Green Master Mix 2× (Applied Biosystems) (3 identical experiments were conducted in triplicate). Two housekeeping genes were used as positive controls: GAPDH and beta-actin (ACTB). The conditions of the QT-PCR reaction were: 10 min at 95° C., 20 sec at 95° C., and 30 sec at 60° C., for 50 cycles. The PNAs having SEQ ID NO: 1-12 were also tested on different cell lines which overexpress MYCN (Kelly, SKNBE2c, RH30, […] 1 and H69). The results are shown in Table 6 and confirm the selectivity and specificity of the inhibition effect of the PNAs on the product of protein translation of the MYCN gene.

Row | Substance | Phoenix prolif. (%) [1] | NIH-3T3 prolif. (%) [2] | RH30 % cell prol. [3] | WiT49 % mRNA [4]
1 | SEQ ID NO: 1: PNA ATGCCGGGCATGATCT against MYCN; subject of patent EP 1618195, control sequence used for comparison (all peptide nucleic acid (PNA)) [reference compound] | 100% | 100% | 76% | 62%
2 | SEQ ID NO: 2: PNA antigene oligonucleotide GGGTGGATGCGGGGGG directed against MYCN (PNA backbone, chemistry not fully specified) | 100% | 100% | 56% | 78%
3 | SEQ ID NO: 3: PNA antigene oligonucleotide GATGCGGGGGGCTCCT directed against MYCN (PNA backbone, chemistry not fully specified) | 100% | 100% | 59% | 75%
4 | SEQ ID NO: 4: PNA antigene oligonucleotide GTCGGCGGGAGGTAAG directed against MYCN (PNA backbone, chemistry not fully specified) | 100% | 100% | 62% | 73%
5 | SEQ ID NO: 5: PNA antigene oligonucleotide GCTGGGTGGATGCGGG directed against MYCN (PNA backbone, chemistry not fully specified) | 100% | 100% | 64% | 69%
6 | SEQ ID NO: 6: PNA antigene oligonucleotide TGGACGCGCTGGGTGG directed against MYCN (PNA backbone, chemistry not fully specified) | 100% | 100% | 64% | 68%
7 | SEQ ID NO: 7: PNA antigene oligonucleotide CGCGCTGGGTGGATGC directed against MYCN (all peptide nucleic acid (PNA)) | 100% | 100% | 63% | 70%
8 | SEQ ID NO: 8: PNA antigene oligonucleotide GTCTGGACGCGCTGGG directed against MYCN (all peptide nucleic acid (PNA)) | 100% | 100% | 60% | 72%
9 | SEQ ID NO: 9: PNA antigene oligonucleotide CCCTGCAGTCGGCGGG directed against MYCN (all peptide nucleic acid (PNA)) | 100% | 100% | 71% | 66%
10 | SEQ ID NO: 10: PNA antigene oligonucleotide CGGCCGCGGGCCGCCA directed against MYCN (PNA backbone, chemistry not fully specified) | 100% | 100% | 80% | 60%
11 | SEQ ID NO: 11: PNA antigene oligonucleotide GGGAACTGTGTTGGAG directed against MYCN (PNA backbone, chemistry not fully specified) | 100% | 100% | 78% | 60%
12 | SEQ ID NO: 12: PNA antigene oligonucleotide TGTCTGGACGCGCTGG directed against MYCN (all peptide nucleic acid (PNA)) | 100% | 100% | 77% | 62%
